# Source: patent US20110250243A1, “NANOPARTICLE COMPOSITIONS” (priority 2008, published 2011)
# Assay: Encapsulation of coumarin-6 in PEC nanoparticles by solvent displacement
# Type: physicochemical
# Conditions: solvent displacement method
# Experimental: Coumarin-6 is used (absorption: 485 nm, emission: 505-525 nm) as it allows to optically detect a potential phagocytosis process and furthermore, is a suitable model for a lipophilic agent. Due to its lipophilic characteristics and low water solubility, coumarin-6 can suitably be processed by the solvent displacement method, in order to achieve a high packaging rate. The encapsulation efficiency is very high and lies close to 100%. The preparation of the loaded nanoparticles is also performed using the modified solvent-displacement method as described in example 2. Coumarin-6 is used in a stock solution of 50 μg/ml in acetonitrile (the stock solution is stored in the refrigerator and protected by light e.g. by using aluminium foil) and the PEC 95 and 99 polymers as a 10 mg/ml stock solution in acetonitrile. All samples are set up in triplicate. For loading the nanoparticles the required amounts of PEC stock solution and coumarin-6 stock solution are mixed, filled up with acetonitrile up to 1.5 ml and vortexed (see table 2). This solution is then injected into the PVA solution according to the usual schema (see above).
smiles,measurement,value
CCN(CC)c1ccc2cc(-c3nc4ccccc4s3)c(=O)oc2c1 [coumarin-6],Encapsulation efficiency,~100%
